Patent publication US4376116A, “Polyamine biosynthesis inhibitors” (Research Corporation, priority 1981, dated 1983)
Read-outs that look alike come from different tables or passages of the source.

How the values were obtained:
[1] = molecular target: T1, rat prostate spermidine synthase (Rattus norvegicus, UniProt Q99MI5); experiment: Inhibition of purified spermidine synthase from rat ventral prostate; format: biochemical
T1 construct: purified spermidine synthase obtained from the rat ventral prostate; from tissue; host or cells: rat ventral prostate
T1 sequence (Q99MI5 1-302): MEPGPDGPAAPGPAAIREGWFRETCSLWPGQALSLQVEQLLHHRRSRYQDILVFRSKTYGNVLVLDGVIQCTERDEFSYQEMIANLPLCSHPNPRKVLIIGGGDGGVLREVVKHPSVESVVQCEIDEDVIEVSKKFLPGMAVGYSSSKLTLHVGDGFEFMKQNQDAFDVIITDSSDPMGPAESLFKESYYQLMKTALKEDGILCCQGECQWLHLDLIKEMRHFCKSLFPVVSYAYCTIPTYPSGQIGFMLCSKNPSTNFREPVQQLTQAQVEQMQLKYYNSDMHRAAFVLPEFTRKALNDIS

[2] = molecular target: T2, rat prostate spermine synthase (Rattus norvegicus, UniProt Q3MIE9); experiment: Inhibition of rat prostate spermine synthase; format: biochemical; details: for inhibition at 100 µM: second preparation of spermine synthase
T2 construct: with respect to rat prostate spermine synthase; from tissue; host or cells: rat prostate
T2 sequence (Q3MIE9 1-366): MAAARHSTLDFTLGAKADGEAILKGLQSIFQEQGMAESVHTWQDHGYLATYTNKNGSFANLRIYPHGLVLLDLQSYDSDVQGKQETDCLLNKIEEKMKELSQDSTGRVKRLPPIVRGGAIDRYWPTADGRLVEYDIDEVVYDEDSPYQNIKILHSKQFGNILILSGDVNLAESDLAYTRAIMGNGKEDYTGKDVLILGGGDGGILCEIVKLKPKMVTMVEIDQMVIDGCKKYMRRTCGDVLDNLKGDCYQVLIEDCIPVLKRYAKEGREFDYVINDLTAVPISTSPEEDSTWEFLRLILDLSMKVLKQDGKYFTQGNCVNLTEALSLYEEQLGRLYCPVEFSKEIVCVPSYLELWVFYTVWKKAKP
From the text: This enzyme catalyzes the synthesis of spermine in the reaction of spermidine with decarboxylated S-adenosylmethionine, presumably by direct nucleophilic attack as shown by the above transition state wherein R is aminopropyl.

[3] = molecular target: T3, methylthioadenosine phosphorylase (Rattus norvegicus, UniProt A0A0G2K583); experiment: Inhibition of methylthioadenosine (MTA) phosphorylase; format: biochemical; details: for % Inhibition MTA Phosphorylase: methyl thioadenosine 100 μm
T3 construct: In the tests involving MTA phosphorylase, the procedure described by H. Hibasami was employed; from tissue
T3 sequence (A0A0G2K583 1-283): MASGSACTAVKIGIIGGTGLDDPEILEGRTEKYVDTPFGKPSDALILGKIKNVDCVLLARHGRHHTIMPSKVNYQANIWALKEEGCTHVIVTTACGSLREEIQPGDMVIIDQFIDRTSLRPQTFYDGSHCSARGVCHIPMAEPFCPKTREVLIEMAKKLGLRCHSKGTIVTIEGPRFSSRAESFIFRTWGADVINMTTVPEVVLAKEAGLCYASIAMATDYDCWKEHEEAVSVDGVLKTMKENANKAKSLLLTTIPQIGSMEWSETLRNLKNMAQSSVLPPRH
From the text: However, they can be readily prepared by coupling 5'-deoxy-5'-chloroadenosine with an appropriate thiol compound. […] (In the tests involving MTA phosphorylase, the procedure described by H. Hibasami was employed at a methyl thioadenosine concentration of 100 μm.)

[4] = Solubility limiting the concentration range; format: physicochemical; details: concentration range limited
[5] = system: aminopropyl transferases; details: another study; cited from earlier work
[6] = system: SAM-dependent methylases; details: cited from earlier work
[7] = at concentrations as high as 250 μM

| Compound | inhibition of spermidine synthase (in words) [1] | % Inhibition Spermidine Synthase ([1]; Concentration 50, dcSAM 21 μm) | % Inhibition Spermidine Synthase ([1]; Concentration 100, dcSAM 21 μm) | % Inhibition Spermidine Synthase ([1]; Concentration 250, dcSAM 21 μm) | inhibition of spermine synthase (in words) [2] | % Inhibition Spermine Synthase ([2]; Concentration 50) | % Inhibition Spermine Synthase ([2]; Concentration 100) | % Inhibition Spermine Synthase ([2]; Concentration 250) | % Inhibition MTA Phosphorylase ([3]; Concentration 250) | also measured |
| --- | --- | --- | --- | --- | --- | --- | --- | --- | --- | --- |
| NCCCCCC(O)CCN (stereo not drawn) [1,8-diamine-3-octanol, reference compound] |  |  |  |  |  |  |  |  |  | inhibition of spermidine synthase (in words) [1, 7]: completely inactive; inhibition of spermine synthase (in words) [2, 7]: completely inactive |
| CCCCCC(CC)[S+](C)C[C@H]1O[C@@H](n2cnc3c(N)ncnc32)[C@H](O)[C@@H]1O (stereo partly drawn) [Compound IIb, S-Adenosyl-3-methylthiooctane] | do not at all inhibit | 7% | 14% | 44% | only modest inhibition | 35% | 56% | 75% | 21% | inhibition at 100 µM [2]: 19% |
| CCCCCC(CC)SC[C@H]1O[C@@H](n2cnc3c(N)ncnc32)[C@H](O)[C@@H]1O (stereo partly drawn) [Compound Ib, S-adenosyl-3-thiooctane] | do not at all inhibit |  | 0% |  | almost no inhibitory activity |  | 22% |  |  | % Inhibition Spermidine Synthase ([1]; Concentration 25, dcSAM 21 μm): 0%; solubility (in words) [4]: poor solubility; % Inhibition Spermine Synthase ([2]; Concentration 25): 11%; % Inhibition MTA Phosphorylase ([3]; Concentration 100): 25% |
| NCCCCCC(CCN)SC[C@H]1O[C@@H](n2cnc3c(N)ncnc32)[C@H](O)[C@@H]1O (stereo partly drawn) [Compound Ic, S-Adenosyl-1,8-diamino-3-thiooctane] | more potent inhibitor of spermidine synthase than the fully charged methyl sulfonium salt IIc | 99% | 99% |  | almost no inhibitory activity |  |  |  |  | % Inhibition Spermidine Synthase ([1]; Concentration 10, dcSAM 21 μm): 97%; % Inhibition Spermidine Synthase ([1]; Concentration 25, dcSAM 21 μm): 97%; inhibitory specificity against spermidine synthase (in words) ([1]; versus spermine synthase): unusual inhibitory specificity; % Inhibition Spermine Synthase ([2]; Concentration 25): 10%; effect on methylthioadenosine phosphorylase (in words) [3]: neither compound Ic nor IIc has any significant effect; % Inhibition MTA Phosphorylase ([3]; Concentration 10): 3%; % Inhibition MTA Phosphorylase ([3]; Concentration 25): 8%; % Inhibition MTA Phosphorylase ([3]; Concentration 100): 10% |
| C[S+](C)C[C@H]1O[C@@H](n2cnc3c(N)ncnc32)[C@H](O)[C@@H]1O.[O-][Cl+3]([O-])([O-])[O-] [IIa, Dimethyl-(5'-adenosyl)sulfonium perchlorate] |  | 0% |  | 6% | shows inhibition of spermine synthase | 68% |  | 82% | 30% |  |
| C[S+](C[C@H]1O[C@@H](n2cnc3c(N)ncnc32)[C@H](O)[C@@H]1O)C(CCN)CCCCCN (stereo partly drawn) [IIc, S-Adenosyl-1,8-diamino-3-(methylthio)octane] |  | 84% | 92% | 96% | only modest inhibition | 40% | 59% | 86% | 25% | % Inhibition Spermidine Synthase ([1]; Concentration 10, dcSAM 21 μm): 32%; % Inhibition Spermine Synthase ([2]; Concentration 10): 7%; inhibition at 100 µM [2]: 28%; effect on methylthioadenosine phosphorylase (in words) [3]: neither compound Ic nor IIc has any significant effect |
| CSC[C@H]1O[C@@H](n2cnc3c(N)ncnc32)[C@H](O)[C@@H]1O [Ia, 5'-methylthioadenosine] | inhibitor of both spermidine synthase and spermine synthase |  |  |  | inhibitor of both spermidine synthase and spermine synthase |  |  |  |  | % Inhibition Spermidine Synthase ([1]; Concentration 50, dcSAM 42 μM): 61%; % Inhibition Spermidine Synthase ([1]; Concentration 100, dcSAM 42 μM): 82%; inhibition of aminopropyl transferases (in words) [5]: non-specific inhibition; % Inhibition Spermine Synthase ([2]; Concentration 50, dcSAM 42 μM): 80%; % Inhibition Spermine Synthase ([2]; Concentration 100, dcSAM 42 μM): 98%; MTA Phosphorylase (substrate, in words) [3]: Substrate |
| Nc1ncnc2c1ncn2[C@@H]1O[C@H](CSCC[C@H](N)C(=O)O)[C@@H](O)[C@H]1O [S-adenosyl-L-homocysteine] |  |  |  |  |  |  |  |  |  | inhibition of SAM-dependent methylases (in words) ([6]; another study): non-specific inhibition; Ki versus Km of S-adenosyl-L-methionine (in words) ([6]; many methylases, Cantoni et al): considerably less than the Km value for the corresponding sulfonium substrate |
